Experimental findings from PubChem BioAssay (NCI) are described below.

Holding throughout (experiment): growth of human tumour cells (NCI), 48 h
Assay [1] deals with CCRF-CEM leukemia.
Assay [2] has as its system IGROV1 ovarian.
For assay [3], the system named is SK-MEL-5 melanoma.
Assay [4] deals with ACHN renal.
In assay [5] the test system is SN12C renal.
In assay [6] the test system is SW-620 colon.
In assay [7] the test system is HL-60(TB) leukemia.
Assay [8] deals with LOX IMVI melanoma.
Assay [9] has as its system MOLT-4 leukemia.
Assay [10] concerns UACC-257 melanoma.

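Exposure lasted 48 hours, with cells grown in 96-well plates and compounds tested at five concentrations. GI50 is the concentration that inhibits growth by half. TGI: concentration producing complete growth inhibition.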 Some results are limits rather than exact numbers.

Take `Cn1cc(C2=C(c3cn(CCCN=C(N)N)c4ccccc34)C(=O)NC2=O)c2ccccc21`: the GI50 in [1] was over 25 µM; in assay [2] it was 14.8 µM; in assay [3], over 25 µM; in [4], over 25 µM; in assay [5], over 19.8 µM; in [6], over 25 µM. Also, the GI50 in [7], in assay [8], in assay [9] and in assay [10] was over 25 µM throughout. Besides, the TGI in assay [1], in assay [2], in assay [3], in assay [4], in assay [5] and in assay [6] was over 25 µM each time. The TGI in assay [7], in assay [8], in assay [9] and in [10] was over 25 µM throughout.

As for `O=C(C[C@@H](C(=O)NCc1cccc(C(F)(F)F)c1)N1C(=O)[C@@H](N2C(=O)OC[C@@H]2c2ccccc2)[C@H]1/C=C/c1ccccc1)NC1CCN(Cc2ccccc2)CC1`, the GI50 is 2.79 µM in assay [1]; 13.3 µM in assay [2]; 3.47 µM in assay [3]; 31.2 µM in assay [4]; 9.46 µM in assay [5]; 3.91 µM in [6]. Besides, the GI50 in assay [7] is 10.4 µM; in assay [8], 4.03 µM; in [9], 1.59 µM; in assay [10], 17.2 µM. Further, the TGI was 7.84 µM in [1]; 32.4 µM in assay [2]; 12.5 µM in [3]; over 100 µM in assay [4]; 30.7 µM in [5]; 17.3 µM in [6]. Besides, the TGI in [7] came out at 33.8 µM; in [8], 18.9 µM; in assay [9], 6.79 µM; in [10] it was 33.8 µM.

Turning to `COc1ccc(C(=O)/C=C/c2cccnc2Nc2cc(OC)c(OC)c(OC)c2)cc1`, the GI50 is 0.711 µM in [1]; 3.03 µM in [2]; 2.2 µM in [3]; 1.9 µM in assay [4]; 2.43 µM in [5]; 0.349 µM in assay [6]. For the same compound, the GI50 in assay [7] is 1.27 µM; in assay [8] it was 0.738 µM; in assay [9], 2.26 µM; in assay [10], 3.93 µM. The TGI in assay [1] is 6.15 µM; in [2], 21.3 µM; in assay [3] it was 10.6 µM; in [4] it was 4.06 µM; in assay [5], 9.69 µM; in assay [6], 1.59 µM. The TGI in assay [7] was found to be 4.01 µM; in assay [8], 2.28 µM; in assay [9], 7.64 µM; in assay [10], 15 µM.

In the case of `CC(C)(C)OC(=O)N(CCCN(CCn1c2c(c3ccccc3c1=O)C(=O)c1ccccc1-2)C(=O)OC(C)(C)C)CCn1c2c(c3ccccc3c1=O)C(=O)c1ccccc1-2`, the GI50 in [1] was 13.3 µM; in assay [2] it was 34.5 µM; in [3], over 50 µM; in [4] it was 14.5 µM; in assay [5], over 50 µM; in assay [6], 40.7 µM. For the same compound, the GI50 in assay [7] was 14.1 µM; in [8], over 50 µM; in assay [9], 6.46 µM; in assay [10], over 50 µM. For the same compound, the TGI in assay [1], in assay [2], in assay [3], in assay [4], in assay [5] and in assay [6] was over 50 µM each time. Also, the TGI in assay [7] was over 50 µM; in assay [8], over 50 µM; in [9] it was 16 µM; in assay [10] it was over 50 µM.

For the compound `CN1C(NC(=O)c2ccc(Cl)nc2)=NS(=O)(=O)c2cc(Cl)ccc21`, the GI50 in assay [1], in [2], in assay [3], in assay [4], in [5] and in [6] was over 100 µM each time. Also, the GI50 in assay [7], in assay [8], in assay [9] and in assay [10] was over 100 µM throughout. The TGI in assay [1], in assay [2], in assay [3], in assay [4], in assay [5] and in assay [6] was over 100 µM each time. The TGI in assay [7], in assay [8], in assay [9] and in assay [10] was over 100 µM each time.

As for `C=C1C(=O)O[C@H]2[C@H]1CC/C(COC(=O)/C=C\C(=O)NCc1ccc(Cn3c(=O)sn(-c4ccc(C#N)cc4)c3=O)cc1)=C\CC[C@@]1(C)O[C@@H]21`, the GI50 in [1] is 0.2 µM; in [2], 0.592 µM; in assay [3] it was 0.842 µM; in assay [4] it was 0.545 µM; in assay [5], 0.671 µM; in assay [6] it was 0.353 µM. Further, the GI50 in assay [7] was 0.961 µM; in assay [8], 0.437 µM; in assay [9], 0.84 µM; in [10] it was 0.812 µM. Besides, the TGI in [1] was 17.9 µM; in [2], 1.3 µM; in assay [3], 1.55 µM; in [4], 1.14 µM; in assay [5] it was 1.57 µM; in assay [6], 1.22 µM. Moreover, the TGI in [7] came to 3.49 µM; in assay [8] it was 1.16 µM; in [9], 4.82 µM; in [10], 1.66 µM.

`Cc1c2c(nn1-c1ccc(S(=O)(=O)/N=C3\SCC(=O)N3C(=O)c3ccccc3)cc1)-c1ccccc1CC2`: the GI50 in assay [1] was 21 µM; in [2], over 100 µM; in assay [3], 25.1 µM; in assay [4] it was 24.6 µM; in assay [5], 19.2 µM; in assay [6], over 100 µM. Moreover, the GI50 is 65.5 µM in [7], over 100 µM in assay [8], over 100 µM in assay [9] and 92.5 µM in assay [10]. Also, the TGI is 49 µM in assay [1]; over 100 µM in [2]; 48.9 µM in assay [3]; 70.2 µM in [4]; 45.8 µM in assay [5]; over 100 µM in assay [6]. The TGI in [7], in assay [8], in assay [9] and in [10] was over 100 µM throughout.

Regarding `CSc1nc(NC2OC(COC(C)=O)C(OC(C)=O)C(OC(C)=O)C2OC(C)=O)c2c(OC(C)=O)c(C)c(=O)oc2n1` (stereo not given), the TGI in [1], in assay [2], in [3], in assay [4], in assay [5] and in assay [6] was over 100 µM in each case. Also, the TGI in [7], in [8], in assay [9] and in assay [10] was over 100 µM in each case.

Turning to `C[C@]12CC[C@@H]3c4ccc(Oc5nc(N6CC6)nc(N6CC6)n5)cc4CC[C@H]3[C@@H]1CCC2=O`, the GI50 in assay [1] is 1.6 µM; in assay [2] it was 3.3 µM; in [3] it was 1.54 µM; in [4], 1.13 µM; in assay [5], 1.74 µM; in assay [6] it was 2.26 µM. Also, the GI50 in assay [7] was 0.529 µM; in assay [8] it was 1.37 µM; in assay [9], 0.747 µM; in assay [10], 2.89 µM. In addition, the TGI in assay [1] was determined as 16.2 µM; in [2], 22.2 µM; in [3], 3.13 µM; in [4], 13 µM; in [5], 15.8 µM; in [6], 18.5 µM. For the same compound, the TGI in assay [7] was found to be 3.26 µM; in assay [8], 3.1 µM; in assay [9], 4.97 µM; in assay [10], 17.5 µM.

Consider `CNC=O.[O]=[Ge].[O]=[Ge].[O]=[Ge].[O]=[Ge][OH].[O]=[Ge][OH]`, for which the TGI in assay [1], in [2], in assay [3], in assay [4], in [5] and in [6] was over 100 µM throughout. For the same compound, the TGI in assay [7], in assay [8], in [9] and in assay [10] was over 100 µM throughout.

Regarding `CCC(C)(O)c1cn(-c2cccc(S(=O)(=O)O)c2)nn1` (stereo not given), the TGI in [1], in assay [2], in [3], in assay [4], in assay [5] and in [6] was over 100 µM throughout. Also, the TGI in assay [7], in assay [8], in assay [9] and in assay [10] was over 100 µM in each case.

In the case of `CC(C)(C)C1=CC(=CC=C2C=CN(CCCCCCCCCCCO)C=C2)C=C(C(C)(C)C)C1=O`, the TGI was 11.7 µM in [1]; 2.26 µM in [2]; 3.31 µM in assay [3]; over 25.2 µM in [4]; 2.73 µM in assay [5]; 3.08 µM in assay [6]. The TGI in [7] was 3.71 µM; in assay [8] it was 1.69 µM; in assay [9], 4.74 µM; in assay [10] it was 4.4 µM.

As for `Cc1[nH]c(N=Nc2ccccc2)nc1N=Nc1ccccc1`, the GI50 in assay [1] is 2.19 µM; in [2], 1.6 µM; in assay [3] it was 2.41 µM; in assay [4], 2.15 µM; in [5], 3.51 µM; in assay [6] it was 4.7 µM. The GI50 was 2.56 µM in assay [7], 2.72 µM in assay [8], 2.32 µM in [9] and 2.26 µM in assay [10]. Also, the TGI in [1] was over 25.3 µM; in assay [2] it was 5.15 µM; in [3], 7.83 µM; in assay [4] it was 7.89 µM; in [5], 22.4 µM; in assay [6], over 56.7 µM. The TGI is over 23.6 µM in [7], 20.9 µM in assay [8], over 41.7 µM in [9] and 5.89 µM in assay [10].

For `O=S(O)CCCCSSCCCCSSCCCCS(=O)O`, the TGI in assay [1] was 64.6 µM; in assay [2], over 100 µM; in assay [3] it was 24.3 µM; in assay [4] it was over 100 µM; in [5] it was over 100 µM; in assay [6], over 100 µM. The TGI in [7] was 30.6 µM; in assay [8], over 100 µM; in [9], 43.9 µM; in assay [10], over 100 µM.

Consider `Cn1cc(-c2csc(-c3cccc(F)c3)n2)c2cccnc21`, for which the GI50 is 35.9 µM in assay [1]; 21.2 µM in assay [2]; 15.7 µM in [3]; 18.2 µM in assay [4]; 15.6 µM in assay [5]; 16.7 µM in [6]. Besides, the GI50 in assay [7] is 14.4 µM; in assay [8] it was 14.1 µM; in [9], 11.7 µM; in [10] it was 21.8 µM. In addition, the TGI in assay [1] is over 100 µM; in assay [2], 47.5 µM; in [3], 30.4 µM; in assay [4], 50.7 µM; in assay [5] it was 29.5 µM; in assay [6], 30.5 µM. Also, the TGI in assay [7] amounted to 49.9 µM; in assay [8], 27.5 µM; in assay [9] it was 34.6 µM; in assay [10], 42.6 µM.

On to `CC(C)=[CH][Sb]([Br])([CH]=C(C)C)([CH]=C(C)C)[CH]=C(C)C`, for which the GI50 was 4.8 µM in assay [1]; 5.57 µM in assay [2]; 3.82 µM in assay [3]; 28.8 µM in [4]; 24.7 µM in assay [5]; 26.4 µM in assay [6]. Also, the GI50 is 1.88 µM in assay [7], 31.6 µM in assay [8], 18.8 µM in assay [9] and 4.87 µM in assay [10]. Further, the TGI was over 100 µM in [1]; 66.3 µM in assay [2]; 24.3 µM in assay [3]; over 100 µM in [4]; over 100 µM in assay [5]; over 100 µM in assay [6]. The TGI is 24.3 µM in assay [7], over 100 µM in assay [8], over 100 µM in [9] and over 100 µM in [10].
